# Patent US9371290B2, “Pyridazinone compounds” (BIOTIE THERAPIES CORPORATION, priority 2011, dated 2016)
# Experiments:
# [1] = target: T1, Recombinant human VAP-1 SSAO (Homo sapiens, UniProt Q16853); assay: In vitro inhibition of VAP-1 SSAO activity (coupled colorimetric method, benzylamine substrate); type: biochemical; conditions: CHO cell lysate, 1 mM benzylamine, read-out: VAP-1 SSAO Inhibitory activity IC50
# T1 construct: made in house; host or cells: Chinese Hamster Ovary (CHO) cells; clarified NP40 cell lysate used directly
# T1 sequence (Q16853 1-763): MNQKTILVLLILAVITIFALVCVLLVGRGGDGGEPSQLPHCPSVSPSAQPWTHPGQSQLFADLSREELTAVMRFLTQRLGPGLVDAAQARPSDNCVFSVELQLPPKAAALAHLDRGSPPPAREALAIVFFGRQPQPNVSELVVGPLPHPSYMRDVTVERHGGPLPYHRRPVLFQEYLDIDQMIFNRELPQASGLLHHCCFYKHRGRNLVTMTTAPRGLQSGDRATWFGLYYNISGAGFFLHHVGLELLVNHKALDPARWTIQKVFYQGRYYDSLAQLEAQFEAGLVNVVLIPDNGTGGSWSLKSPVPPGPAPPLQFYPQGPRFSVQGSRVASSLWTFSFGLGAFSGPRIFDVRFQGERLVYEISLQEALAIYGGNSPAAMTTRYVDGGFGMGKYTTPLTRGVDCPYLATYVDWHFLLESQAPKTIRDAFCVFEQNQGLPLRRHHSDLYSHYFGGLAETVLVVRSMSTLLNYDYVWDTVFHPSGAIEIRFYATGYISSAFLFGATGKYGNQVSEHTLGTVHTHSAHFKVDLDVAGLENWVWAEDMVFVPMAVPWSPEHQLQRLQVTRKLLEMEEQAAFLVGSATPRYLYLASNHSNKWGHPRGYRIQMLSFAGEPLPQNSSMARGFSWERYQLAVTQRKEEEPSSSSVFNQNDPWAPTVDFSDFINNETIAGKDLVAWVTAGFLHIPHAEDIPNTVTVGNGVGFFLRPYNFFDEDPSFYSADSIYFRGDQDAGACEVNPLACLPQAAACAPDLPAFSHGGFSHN
# Procedure: VAP-1 SSAO activity was measured using the coupled colorimetric method essentially as described for monoamine oxidase and related enzymes (Holt, A., et al., Anal. Biochem. 244:384-392 (1997)). Recombinant human VAP-1 SSAO expressed in Chinese Hamster Ovary (CHO) cells was used as a source of VAP-1 SSAO for activity measurements. Native CHO cells have negligible SSAO activity. These cells and their culture have previously been described (Smith, D. J., et al., J. Exp. Med. 188:17-27 (1998)). A cell lysate was prepared by suspending approximately 3.6×10^8 cells in 25 ml lysis buffer (150 mM NaCl, 10 mM Tris-Base pH 7.2, 1.5 mM MgCl2, 1% NP40) and incubating at 4° C. overnight on a rotating table. The lysate was clarified by centrifugation at 18 000 g for 5 min at room temperature and the supernatant used directly in the assay. The VAP-1 SSAO assay was performed in 96 well microtitre plates as follows. To each well was added a predetermined amount of inhibitor if required. The amount of inhibitor varied in each assay but was generally at a final concentration of between 1 nM and 50 μM. Controls lacked inhibitor. The inhibitor was in a total volume of 20 μl in water. The following reagents were then added. 0.2 M potassium phosphate buffer pH 7.6 to a total reaction volume of 200 μl, 50 μl of freshly made chromogenic solution containing 1 mM vanillic acid, 500 μM 4-aminoantipyrine and 8 U/ml horseradish peroxidase and an amount of CHO cell lysate containing VAP-1 SSAO that caused a change of 0.6 A490 per h. This was within the linear response range of the assay. The plates were incubated for 30 min at 37° C. and the background absorbance measured at 490 nm using a Wallac Victor II multilabel counter. To initiate the enzyme reaction 20 μl 10 mM benzylamine (final concentration=1 mM) was added and the plate incubated for 1 h at 37° C. The increase in absorbance, reflecting VAP-1 SSAO activity, was measured at 490 nm. Inhibition was presented as percent inhibition compared to control after correcting for background absorbance and IC50 values calculated using GraphPad Prism.
# Total MAO = assay: Total rat MAO activity (rat liver mitochondrial preparation, tyramine substrate); type: biochemical; conditions: at 50 μM
# Procedure: Rat MAO was prepared from rat liver by rinsing the 1 g liver sample several times in 14 ml KCl-EDTA-solution to remove all blood. Then 1 g liver sample was homogenized in 4 ml ice-cold potassium phosphate buffer (0.1 M, pH 7.4) with an Ultra-Turrax homogenizer (setting 11 000 rpm, 4×10 s). After centrifugation at 500 g for 10 min at 4° C. the supernatant was carefully withdrawn and was centrifuged at 12 300 g for 15 min at 4° C. The supernatant was discharged and sedimented mitochondria were resuspended in 4 ml fresh phosphate buffer and centrifuged as previously. The mitochondria were suspended in 4 ml phosphate buffer and homogenized with an Ultra-Turrax homogenizer (setting 11 000 rpm, 2×10 s). Mitochondrial preparate was aliquoted and stored at −70° C. Total MAO activity was measured in a similar way as for VAP-1 SSAO except that SSAO enzyme was replaced by MAO enzyme. To each well was added a predetermined amount of inhibitor if required. The amount of inhibitor varied in each assay but was generally at a final concentration of between 10 nM and 800 μM. Controls lacked inhibitor. The inhibitor was in a total volume of 20 μl in water. The following reagents were then added. 0.2 M potassium phosphate buffer pH 7.6 for a total reaction volume of 200 μl, 50 μl of freshly made chromogenic solution (as above) and 50 μl of MAO preparation (or needed amount of MAO). The plates were incubated for 30 min at 37° C. and the background absorbance measured at 490 nm using a Wallac Victor II multilabel counter. To initiate the enzyme reaction 20 μl of 5 mM tyramine (final concentration 0.5 mM) was added and the plate incubated for 1 h at 37° C. The increase in absorbance, reflecting MAO activity, was measured at 490 nm. Inhibition was presented as percent inhibition compared to control after correcting for background absorbance and IC50 values calculated using GraphPad Prism. Clorgyline and pargyline (inhibitors of MAO-A and -B respectively) at 0.5 μM were added to some wells as positive controls for MAO inhibition.
melting point [°C],IC50 [1] [µM],SMILES,Total MAO Inhibitory activity (%) (Total MAO)
172 to 175,2.2,C=CCOc1cc(=O)n(-c2ccc(Cl)cc2)nc1-c1nc[nH]n1 [Compound 73],0
248 to 250,0.1,O=c1cc(Nc2ccc(N3CCOCC3)cc2)c(-c2nc[nH]n2)nn1-c1ccc(Cl)cc1 [Compound 74],0
252 to 254,0.22,C#CCNc1cc(=O)n(-c2ccc(Cl)cc2)nc1-c1nc[nH]n1 [Compound 75],0
248 to 251,0.35,O=c1cc(Nc2ccc(N3CCN(Cc4ccccc4)CC3)cc2)c(-c2nc[nH]n2)nn1-c1ccc(Cl)cc1 [Compound 77],24
176 to 177,0.073,C#CCCNc1cc(=O)n(-c2ccc(Cl)cc2)nc1-c1nc[nH]n1 [Compound 83],0
